Experimental findings from publication PMC6934184, “Selective DNA-PKcs inhibition extends the therapeutic index of localized radiotherapy and chemotherapy” (The Journal of Clinical Investigation, 2019) are described below.

The test concerns the target T1, MST1R (RON) (Homo sapiens, UniProt Q04912).
T1 construct: purchased Thermo Fisher Scientific (Life Technologies) SelectScreen
The test can be described thus: SelectScreen Z'LYTE. It is filed as biochemical. In short, it runs like this:
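SelectScreen broad panel; activity (Z'LYTE, Adapta) plus binding formats. ATP: Km app for CSF1R Z'LYTE; 10 for CAMK1 Adapta. Readout = % per kinase.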

Molecules are shown by their SMILES.

T1 sequence (Q04912 25-1400): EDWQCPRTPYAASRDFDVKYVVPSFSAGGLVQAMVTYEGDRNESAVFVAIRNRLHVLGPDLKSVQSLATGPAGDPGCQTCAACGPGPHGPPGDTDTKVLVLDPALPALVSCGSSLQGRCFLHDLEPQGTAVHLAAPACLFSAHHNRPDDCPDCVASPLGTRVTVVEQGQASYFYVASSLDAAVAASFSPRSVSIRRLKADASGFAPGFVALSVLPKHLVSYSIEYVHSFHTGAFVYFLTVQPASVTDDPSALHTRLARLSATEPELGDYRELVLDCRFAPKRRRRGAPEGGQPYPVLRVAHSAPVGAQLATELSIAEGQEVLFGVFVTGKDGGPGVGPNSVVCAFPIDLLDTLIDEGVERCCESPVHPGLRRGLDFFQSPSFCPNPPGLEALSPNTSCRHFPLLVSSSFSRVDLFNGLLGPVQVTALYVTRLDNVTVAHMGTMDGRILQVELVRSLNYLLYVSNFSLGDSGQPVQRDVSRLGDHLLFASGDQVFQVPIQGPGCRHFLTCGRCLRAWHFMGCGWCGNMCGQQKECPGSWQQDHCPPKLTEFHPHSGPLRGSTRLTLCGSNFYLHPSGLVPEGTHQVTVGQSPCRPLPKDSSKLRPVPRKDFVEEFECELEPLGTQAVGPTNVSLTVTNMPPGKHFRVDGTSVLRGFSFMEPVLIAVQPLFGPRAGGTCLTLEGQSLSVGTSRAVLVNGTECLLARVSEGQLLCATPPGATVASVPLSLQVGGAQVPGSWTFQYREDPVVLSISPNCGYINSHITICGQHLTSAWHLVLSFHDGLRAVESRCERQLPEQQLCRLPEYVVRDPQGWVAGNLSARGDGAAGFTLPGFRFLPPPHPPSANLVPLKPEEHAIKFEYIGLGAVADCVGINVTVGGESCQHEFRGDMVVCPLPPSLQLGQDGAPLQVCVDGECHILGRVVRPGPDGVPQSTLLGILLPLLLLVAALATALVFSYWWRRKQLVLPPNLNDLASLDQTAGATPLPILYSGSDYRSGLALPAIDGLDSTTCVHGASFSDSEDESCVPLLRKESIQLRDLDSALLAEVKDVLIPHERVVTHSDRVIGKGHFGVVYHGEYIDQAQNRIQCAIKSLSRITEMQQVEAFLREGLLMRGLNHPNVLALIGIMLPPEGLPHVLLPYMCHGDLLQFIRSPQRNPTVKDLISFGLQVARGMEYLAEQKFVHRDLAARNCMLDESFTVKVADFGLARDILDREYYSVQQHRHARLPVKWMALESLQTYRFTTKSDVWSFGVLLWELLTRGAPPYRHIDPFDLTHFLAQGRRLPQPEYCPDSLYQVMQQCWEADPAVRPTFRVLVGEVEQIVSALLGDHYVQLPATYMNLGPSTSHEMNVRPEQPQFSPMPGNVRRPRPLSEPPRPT

As for `CN(C(=O)CN1CCOCC1)c1ccc2sc3c(-c4cccc5c(=O)cc(N6CC7CCC(C6)O7)oc45)cccc3c2c1` [NU5455], the inhibition (usually the drop in the measured response relative to a control, in per cent) at 1 µM was -13.4%.
